Data from publication PMC6642116, “Structural and functional analyses of hepatitis B virus X protein BH3-like domain and Bcl-xL interaction” (Nature Communications, 2019).

Columns and labels:
HBV in HepG2-NTCP cells = assay: Inhibition of HBV infection in HepG2-NTCP cells by HBx118–127; assay type: cell-based; details: unrelated control peptide, MOI 200, day 8
Method: We took advantage of the structural information of the HBx-aa113–135/Bcl-xL complex to develop potential HBV inhibitors. […] BH3-only mimetics, […] and ABT-737, were included as controls. […] We also used HBV-infected HepG2-NTCP cells to evaluate the inhibitory effect of the HBx-aa118–127 peptide on HBV replication, by treating the cells with the peptide at 12.5, 50, and 200 µg/ml concentrations, respectively.
Cytoplasmic HBV viral particles were isolated and the viral DNA replication intermediates were quantified (Methods). […] The lysate was analyzed by immunoblotting using antibodies to caspase-3 (CASP3) and GAPDH (glyceraldehyde 3-phosphate dehydrogenase). c, d The HBx-aa113–135, HBx-aa118–127, or the control peptides were delivered into HepG2.2.15 cells using PEP-1 nanoparticles (Methods). The levels of HBV DNA (c) and the levels of HBV S-antigen (HBsAg) expression (d) in culture medium collected from HepG2.2.15 cells were measured (Methods). […] Data shown represent mean ± SD. Significance is indicated on the top. Not significant (ns): *P < 0.05, **P < 0.01; two-tailed unpaired t tests (n = 3 biologically independent samples). Source data are provided as a Source Data file
(§1) The levels of HBsAg, HBeAg, and HBcAg expression were measured by chemiluminescence, using Commercial Assay Kit (Wantai, Beijing, China). Northern blot analysis of HBV RNA, Southern blot analysis of HBV DNA, and real-time PCR quantification of HBV DNA are described in the Supplementary Methods.

[1] = test system: HBV replication from pHBV1.3-Xnull replicon in HepG2 cells; assay: HBV production rescue assay, PEP-1 delivered peptides; assay type: cell-based; details: HepG2 + pHBV1.3-Xnull, peptide/PEP-1, 48 h
Text: Fig. 3 The HBx-BH3-like domain is critical for HBV production in HepG2 cells. a–e C-terminal biotinylated HBx-aa113–135 peptides (both wild-type (WT) and the W120A/L123A double mutant) were delivered into HepG2 cells transfected with pHBV1.3-Xnull using PEP-1 nanoparticles (Methods) and analyzed by streptavidin-FITC (fluorescein isothiocyanate) for transfection efficiency (a). Scale bar is 50 μm. An unrelated 23-aa peptide was used as a control (Control). The intracellular expression levels of HBV core antigen (HBcAg (b) and the levels of HBV e-antigen (HBeAg) (c), HBV S-antigen (HBsAg) (d), and HBV DNA (e) in the culture medium collected from HepG2 cells were measured (Methods). The results are shown as fold change to the WT HBx-aa113–135 peptide (WT). f–i) HepG2 cells were co-transfected with pHBV1.3-Xnull and pTT22m-HBx-WT (WT), pHBV1.3-Xnull and pTT22m-HBx(W120A/L123A), or pHBV1.3-Xnull and the pTT22m vector control (Control). Intracellular expression levels of HBcAg (f) and the levels of HBeAg (g), HBsAg (h), and HBV DNA (i) in the culture medium from HepG2 cells were measured similarly. The results are shown as fold change to the combination of pHBV1.3-Xnull and pTT22m-HBx-WT (WT). Data shown represent mean ± SD. Significance is indicated on the top. **P < 0.01, ***P < 0.001, ****P < 0.0001; two-tailed unpaired t tests (n = 3 biologically independent samples). Source data are provided as a Source Data file
HepG2 cells were grown in Dulbecco’s modified Eagle’s medium (DMEM) with 10% Gibco fetal bovine serum. C-terminal biotinylated-labeled HBx peptides were transfected into HepG2 cells by pep-1[16], a peptide carrier for the delivery of biologically active proteins into mammalian cells. HBx peptides and pep-1 were firstly dissolved in DMEM to 1 mg/ml, then adjusted to 500 µl DMEM to a final concentration of 100 µg/ml, and incubated at 37 °C for 30 min in the tube. The incubated peptide mixture was added into pre-seeded HepG2 cells in a 24-well plate and incubated for another 30 min, and then washed five times by phosphate-buffered saline (PBS) to remove the free peptides. The transfected C-terminal biotinylated HBx peptides were detected by using streptavidin-FITC (fluorescein isothiocyanate) equipment (Thermo Fisher Scientific) following the standard immunostaining methods.
Transfection of plasmids into HepG2 cells was carried out using X-tremeGENE HP DNA Transfection Reagent (Roche), following the manufacturer’s protocol. A transfection efficiency of 20–30% could be achieved. Cells were pre-seeded 24 h before transfections. pHBV1.3-HBx-null plasmid was transfected into HepG2 cells for 6 h, then HBx-aa113–135, HBx-aa113–135-(W120A, L123A), or control peptide was transfected by pep-1 carrier and incubated for additional 48 h without the removal of peptides. The culture media of the HepG2 cells were harvest for analysis.
as §1

SSTTSTGPCKTCTTPAQGTSMFP-K-biotin [Control, equal-length unrelated control biotin-labeled peptide]
HBV DNA, HepG2-NTCP cell (HBV in HepG2-NTCP cells; replicate 1): 0.996 fold-change to control | HBeAg, HepG2-NTCP cell (HBV in HepG2-NTCP cells; replicate 1): 1.091 fold-change to control | HBV DNA, HepG2-NTCP cell (HBV in HepG2-NTCP cells; replicate 2): 0.822 fold-change to control | HBeAg, HepG2-NTCP cell (HBV in HepG2-NTCP cells; replicate 2): 1.003 fold-change to control | HBV DNA, HepG2-NTCP cell (HBV in HepG2-NTCP cells; replicate 3): 1.182 fold-change to control | HBeAg, HepG2-NTCP cell (HBV in HepG2-NTCP cells; replicate 3): 0.906 fold-change to control | HBcAg in cells ([1]; replicate 1): 0.472 fold-change to WT | HBeAg in culture medium ([1]; replicate 1): 0.329 fold-change to WT | HBsAg in culture medium ([1]; replicate 1): 0.215 fold-change to WT | Secreted HBV DNA ([1]; replicate 1): 990600 Copies/mL | HBcAg in cells ([1]; replicate 2): 0.663 fold-change to WT | HBeAg in culture medium ([1]; replicate 2): 0.389 fold-change to WT | HBsAg in culture medium ([1]; replicate 2): 0.227 fold-change to WT | Secreted HBV DNA ([1]; replicate 2): 564700 Copies/mL | HBcAg in cells ([1]; replicate 3): 0.512 fold-change to WT | HBeAg in culture medium ([1]; replicate 3): 0.344 fold-change to WT | HBsAg in culture medium ([1]; replicate 3): 0.207 fold-change to WT | Secreted HBV DNA ([1]; replicate 3): 887700 Copies/mL
